Structures can show the parent of a compound that is named as a salt.
Tests used:
[1] = test system: collagen production induced by TGF-β (TIG-3 cells); test: Inhibitory effect on collagen production induced by TGF-β, [3H] proline uptake (TIG-3 cells); assay type: cell-based; settings: Homo sapiens, TGF-β1 3 ng/ml
Protocol: (§1) As an index of collagen production, the uptake of [^3H] proline was measured.
(§2) Using a 96-well microplate, normal human skin derived fibroblast (NHDF, 10^4/well) or human embryonic lung fibroblast (TIG-3, 10^4/well) were cultured in a 10% fetal calf serum (FCS)-containing Dulbecco's modified Eagle medium (DMEM) for one day. After removing the culture supernatant, the cells were washed once with a 0.1% bovine serum albumin (BSA)-containing DMEM medium and then cultured in the 0.1% bovine serum albumin (BSA)-containing DMEM medium for one day. After adding each of the test compounds in each concentration (1, 3, 10 μM), the cells were cultured and, after adding TGF-β1 (3 ng/ml) and [^3H] proline (18.5 kBq/well), the cells were further cultured for additional one day.
(§3) After removing the culture supernatant, the cells were washed twice with a phosphate buffer solution (PBS) and dissolved with 0.3M NaOH and 1% sodium dodecylsulfate (SDS), and then each protein fraction was precipitated with trichloroacetic acid (TCA) After the precipitate was filtered through a glass filter (GF/B) and washed, the quantity of [^3H] proline on the glass filter was measured by a liquid scintillation counter. The number of cells was measured by a cell growth measuring kit (XTT, Roche) and the uptake of [^3H] proline was corrected by the number of cells. Inhibitory ratio was calculated as compared with the case where a difference between the uptake of [^3H] proline with or without TGF-β1.

[2] = test system: collagen production induced by TGF-β (NHDF cells); test: Inhibitory effect on collagen production induced by TGF-β, [3H] proline uptake (NHDF cells); assay type: cell-based, human; settings: Homo sapiens, NHDF, TGF-β1 3 ng/ml
Protocol: as §1, §2, §3

[3] = Measurement of concentration of compound in rat plasma; assay type: in vivo; settings: oral 10 mg/kg; for concentration at 0.25 h: after 0.25 hours; for concentration at 1 h: after 1 hour; for concentration at 4 h: after 4 hours
Protocol: Each of the test compounds was dissolved or suspended in methyl cellulose and the resulting solution or suspension was orally administered to rats at a dosage of 10 mg/kg and blood was collected after 0.25 hours, 1 hour and 4 hours. The concentration in plasma in each of the compounds was measured by HPLC.

mice = test: Acute toxicity; assay type: in vivo; settings: oral 1000 mg/kg, observed for a week after administration
Protocol: Each of the compounds in Examples 1, 9, 31, 120, and 121 was administered.

melting point [°C]	SMILES	inhibition at 3 µM [1] [%]	inhibition at 10 µM [1] [%]	inhibition at 1 µM [2] [%]	inhibition at 3 µM [2] [%]	inhibition at 10 µM [2] [%]	concentration at 0.25 h [3] [ng/mL]	concentration at 1 h [3] [ng/mL]	concentration at 4 h [3] [ng/mL]	Acute toxicity: deaths (mice)
	Cc1ccc2c(c1)c(C(=O)N1CCN(c3ccc(C(=O)N(CCO)Cc4ccccc4)cn3)CC1)c(-c1ccccc1)n2C [Example 60, 6-{4-[(1,5-dimethyl-2-phenyl-1H-indol-3-yl)carbonyl]piperazin-1-yl}-N-(2-hydroxyethyl)-N-benzylnicotinamide hydrochloride]	70	133							
	Cc1ccc2c(c1)c(C(=O)N1CCN(c3cnc(C(=O)NCCc4scnc4C)cn3)CC1)c(-c1ccccc1)n2C [Example 80, 5-{4-[(1,5-dimethyl-2-phenyl-1H-indol-3-yl)carbonyl]piperazin-1-yl}-N-[2-(4-methyl-1,3-thiazol-5-yl)ethyl]pyrazine-2-carboxamide]	105	149							
	Cc1ccc2c(c1)c(C(=O)N1CCN(c3ccccn3)CC1)c(-c1ccccc1)n2C [Compound A, 1-(1,5-dimethyl-2-phenylindol-3-ylcarbonyl)-4-(2-pyridyl)piperazine hydrochloride, reference compound]	28	63	8	9	30	0 to 69	55 to 120	5 to 18	
	Cc1ccc2c(c1)c(C(=O)N1CCN(c3cnc(C(=O)NCCc4ccccn4)cn3)CC1)c(-c1ccccc1)n2C [Example 76, 5-{4-[(1,5-dimethyl-2-phenyl-1H-indol-3-yl)carbonyl]piperazin-1-yl}-N-[2-(2-pyridyl)ethyl]pyrazine-2-carboxamide]	78	101							
	Cc1ccc2c(c1)c(C(=O)N1CCN(c3cnc(C(=O)NCc4ccco4)cn3)CC1)c(-c1ccccc1)n2C [Example 15, 5-{4-[(1,5-dimethyl-2-phenyl-1H-indol-3-yl)carbonyl]piperazin-1-yl}-N-(2-furylmethyl)pyrazine-2-carboxamide]	82	140							
224.6	Cc1ncsc1CCNC(=O)c1cnc(N2CCN(C(=O)c3c(-c4ccccc4)n(C)c4cccnc34)CC2)cn1 [Example 7, 5-{4-[(1-methyl-2-phenyl-1H-pyrrolo[3,2-b]pyridin-3-yl)carbonyl]piperazin-1-yl}-N-[2-(4-methyl-1,3-thiazol-5-yl)ethyl]pyrazine-2-carboxamide]									
	CC(=O)Nc1cnc(N2CCN(C(=O)c3c(-c4ccccc4)n(C)c4ccc(C)cc34)CC2)cn1 [Example 121, N-[5-{4-[(1,5-dimethyl-2-phenyl-1H-indol-3-yl)carbonyl]piperazin-1-yl}pyrazin-2-yl]acetamide]				39	54	3900 to 5800	2100 to 5800	310 to 580	no deaths were observed
	COc1ccc(CNC(=O)/C=C/c2c(-c3ccccc3)n(C)c3ccccc23)cc1 [Example 2, (2E)-N-(4-methoxybenzyl)-3-(1-methyl-2-phenyl-1H-indol-3-yl)acrylamide]	74	117	23	61	79				
	Cc1ccc2c(c1)c(C(=O)N1CCN(c3ccc(C(=O)N(C)C)cn3)CC1)c(-c1ccccc1)n2C.Cl [Example 120, 6-{4-[(1,5-dimethyl-2-phenyl-1H-indol-3-yl)carbonyl]piperazin-1-yl}-N,N-dimethylnicotinamide hydrochloride]						6400 to 10000	3200 to 5700	2500 to 3100	no deaths were observed
	Cc1ccc2c(c1)c(C(=O)N1CCN(c3ccc(C(=O)NCCO)cn3)CC1)c(-c1ccccc1)n2C [Example 1, 6-{4-[(1,5-dimethyl-2-phenyl-1H-indol-3-yl)carbonyl]piperazin-1-yl}-N-(2-hydroxyethyl)nicotinamide]	21	56				2300 to 29000	1300 to 7300	750 to 940	no deaths were observed
	CC1c2cc3c(cc2CCN1C(=O)/C=C/c1c(-c2ccccc2)n(C)c2ncccc12)OCO3 (stereo not shown) [Example 28, 5-methyl-6-[(2E)-3-(1-methyl-2-phenyl-1H-pyrrolo[2,3-b]pyridin-3-yl)prop-2-enoyl]-5,6,7,8-tetrahydro[1,3]dioxolo[4,5-g]isoquinoline hydrochloride]			31	40	92	71 to 170	400 to 550	320 to 460	
	Cc1ccc2c(c1)c(C(=O)N1CCN(c3ccc(-c4nnn(CCO)n4)cn3)CC1)c(-c1ccccc1)n2C.Cl [Example 9, 1,5-dimethyl-2-phenyl-3-[(4-{5-[2-(2-hydroxyethyl)-2H-tetrazol-5-yl]pyridin-2-yl}piperazin-1-yl)carbonyl]-1H-indole hydrochloride]	42	71				1300 to 3900	720 to 2200	350 to 530	no deaths were observed
	Cc1ncsc1CCNC(=O)c1cnc(N2CCN(C(=O)c3c(-c4ccccc4)n(C)c4ncccc34)CC2)cn1 [Example 27, 5-{4-[(1-methyl-2-phenyl-1H-pyrrolo[2,3-b]pyridin-3-yl)carbonyl]piperazin-1-yl}-N-[2-(4-methyl-1,3-thiazol-5-yl)ethyl]pyrazine-2-carboxamide dihydrochloride]			25	35	42	2400 to 4100	1500 to 1900		
	Cn1c(-c2ccccc2)c(/C=C/C(=O)N2CCC(n3c(=O)[nH]c4ccccc43)CC2)c2cccnc21 [Example 29, 1-{1-[(2E)-3-(1-methyl-2-phenyl-1H-pyrrolo[2,3-b]pyridin-3-yl)prop-2-enoyl]piperidin-4-yl}-1,3-dihydro-2H-benzimidazol-2-one hydrochloride]			64	72	123	330 to 940	280 to 1100	170 to 710	
	Cc1ccc2c(c1)c(C(=O)N1CCN(c3cnc(C(=O)NCc4c(C)noc4C)cn3)CC1)c(-c1ccccc1)n2C [Example 32, 5-{4-[(1,5-dimethyl-2-phenyl-1H-indol-3-yl)carbonyl]piperazin-1-yl}-N-[(3,5-dimethylisoxazol-4-yl)methyl]pyrazine-2-carboxamide]	62	117							
	Cc1ccc2c(c1)c(C(=O)N1CCN(c3cnc(C(=O)NCCCn4ccnc4)cn3)CC1)c(-c1ccccc1)n2C [Example 31, 5-{4-[(1,5-dimethyl-2-phenyl-1H-indol-3-yl)carbonyl]piperazin-1-yl}-N-[3-(1H-imidazol-1-yl)propyl]pyrazine-2-carboxamide]	36	90			74	320 to 370	320 to 640	420 to 650	no deaths were observed
